Measurements from PMC12156033, “N-Alkylamino Stilbene Compounds as Amyloid β Inhibitors for Alzheimer’s Disease Research” (Molecules, 2025).
“Also recorded” adds a separate entry of the source.

Key:
[1] = molecular target: T1, amyloid plaques in 5xFAD mice brain sections (Homo sapiens, UniProt P05067); test: Histological staining of 5xFAD mice brain sections, colocalization with HJ3.4 antibody; type: binding, mouse; details: 11-month-old 5xFAD mice brain sections, compound 25 μM, HJ3.4 1 μg/mL
T1 construct: the amyloid beta (Aβ) peptide that makes up amyloid plaques; tissue Jackson Laboratories; host or cells: brain sections from 11-month-old 5xFAD transgenic mice (Tg6799 line)
Text: To further investigate the affinity of the developed compounds toward various Aβ aggregates in situ, the intrinsic fluorescence properties of the compounds were employed for their ability to stain insoluble amyloid plaques. For these studies, brain sections from 11-month-old 5xFAD transgenic mice, which rapidly develop severe amyloid pathology, were co-stained with stilbenes and HJ3.4 antibody. HJ3.4 is an anti-amyloid antibody that binds to the N-terminal region of the Aβ peptide, thereby targeting both soluble and insoluble amyloid species. To evaluate the Aβ binding specificity of the compounds in vitro, brain sections from 11-month-old 5xFAD mice were washed with PBS (3 × 5 min) and blocked with bovine serum albumin (2% w/v BSA in PBS, pH 7.4, 10 min). Then, the sections were incubated with 25 μM of multifunctional compounds and sequentially stained with HJ3.4 antibody (Professor David Holtzman, 1 μg/mL) for 30 min. The brain sections were treated with 2% w/v BSA-PBS again for 4 min to remove any compounds or antibodies that were non-specifically binding to the tissue. Finally, the sections were washed with PBS (3 × 2 min) and DI water (2 min) and mounted with non-fluorescent mounting media (Vectashield). Colocalization analysis and determination of Pearson’s correlation coefficient were performed with the imaging software Fiji (ImageJ 1.52p). Mouse brains were harvested in compliance with the Institutional Animal Care and Use Committee of the University of Illinois at Urbana-Champaign (IACUC protocol #22094).

[2] = molecular target: T2, Aβ42 fibrils (Homo sapiens, UniProt P05067); test: Fluorescence spectra of compounds with Aβ42 fibrils; type: binding; details: excitation 380 nm; compound 5.0 µM in PBS with Aβ fibrils
T2 construct: commercial Aβ42 peptide (AnaSpec or GL Biochem); purchased AnaSpec or GL Biochem
Method: (§1) All fluorescence measurements were performed using a SpectraMax M2e plate reader (Molecular Devices, San Jose, CA, USA). The fluorescence spectra of the compounds’ solution (100 μL PBS, 5.0 µM) were recorded with excitation at 380 nm and an emission wavelength from 400 to 680 nm. To PBS solutions (100 μL) of the compounds (5.0 µM), various Aβ42 species were added, with final concentrations of 5.0 µM and 25.0 µM, and their fluorescence spectra (λmax of emission) were determined as described above.
(§2) Aβ42 powder was prepared by dissolving commercial Aβ42 peptide (AnaSpec or GL Biochem) in ammonium hydroxide solution (1%, v/v). The solution was then aliquoted out and lyophilized overnight. The resulting aliquoted powder was stored at −80 °C. Aβ42 monomers were generated by dissolving Aβ42 powder in 1,1,1,3,3,3-hexafluoro-2-propanol (HFIP, 1 mM) and incubating for 1 h at room temperature. The solution was then evaporated overnight and dried by vacuum centrifuge to result in monomeric films. Aβ42 fibrils were generated by dissolving the monomeric Aβ42 films in DMSO, diluting into the appropriate buffer, and incubating for 24 h at 37 °C with continuous agitation (final DMSO concentration was <2%). For the preparation of Aβ42 oligomers, the peptides were suspended in PBS buffer and incubated overnight at 4 °C.

[3] = Fluorescence spectra of the compounds alone in PBS; type: physicochemical; details: excitation 380 nm; compound 5.0 µM in PBS
Method: as §1

[4] = Log D measurement octanol/PBS; type: physicochemical; details: octanol / PBS pH 7.4, 10 μM, triplicate, ± SD
Method: The determination of log D values for N-alkylamino multifunctional compounds was performed using a slightly modified reported procedure. The compounds (final concentration 10 μM) were added to the premix suspension containing 0.5 mL octanol and 0.5 mL octanol-saturated PBS buffer (pH = 7.4). The resulting mixture was stirred vigorously for 5 min and centrifuged at 2000 rpm for 5 min. The octanol layer was separated from the PBS layer, and the fluorescence spectrum was recorded. The remaining 0.5 mL PBS layer was partitioned with 0.5 mL PBS-saturated octanol, and the octanol layer was separated after 5 min of vigorous shaking and centrifuging. The fluorescence spectrum of the octanol layer was recorded. The log D value was calculated based on the fluorescence intensity ratio for the two octanol layers. Each experiment was completed in triplicate, and the error represents the standard deviation for the average log D values.

[5] = molecular target: T3, soluble Aβ42 aggregates (sAβ) (Homo sapiens, UniProt P05067); test: Fluorescence spectra of compounds with soluble Aβ42 aggregates; type: binding; details: excitation 380 nm; compound 5.0 µM in PBS with soluble Aβ aggregates
T3 construct: commercial Aβ42 peptide (AnaSpec or GL Biochem); purchased AnaSpec or GL Biochem
Method: as §1, §2

[6] = tested on: Cu-Aβ42 cytotoxicity on N2a cells; test: N2a cell rescue from Cu-induced Aβ42 cytotoxicity (Alamar blue); type: cell-based, mouse; details: [Aβ42] = [CuCl2] = 20 μM, compound 5 μM
Method: Mouse neuroblastoma Neuro2A (N2A) cell lines were purchased from the American Type Culture Collection (ATCC), Manassas, VA, USA. Cells were grown in DMEM/10% FBS, which is the regular growth media for N2A cells, in a humidified atmosphere with 5% CO2 at 37 °C. N2A cells were seeded in a clear 96-well plate (2.5 × 10^4/well) with DMEM/10% FBS. The media was changed to DMEM/N-2 media 24 h later. After 1 h, the treatment reagents were added. Owing to the poor solubility of compounds in the media, the final amount of DMSO used was 1% (v/v). After an additional incubation of 40 h, Alamar Blue solution was added to each well, and the cells were incubated for 90 min at 37 °C. Fluorescence intensity was measured at 590 nm (excitation wavelength = 560 nm).
The Alamar Blue assay was carried out as described, with the following treatment reagents: 20 μM Aβ42 species, 5 μM compounds, and 20 μM CuCl2.

[7] = molecular target: T4, Aβ40 peptide (Homo sapiens, UniProt P05067); test: Aβ40 aggregation inhibition assay monitored by ThT fluorescence; type: biochemical; details: 25 μM Aβ40, 5 μM ThT, 5 μM compound, 37 °C, 48 h
T4 construct: a peptide solution of 25 μM Aβ40 monomers (AnaSpec, Fremont, CA, USA) was prepared; purchased AnaSpec
Method: To investigate the effect of these compounds on amyloid aggregation, inhibition of aggregation assays were performed using the Aβ40 peptide. Aβ40 has been implicated in inducing oxidative stress and is physiologically the most common isoform of the amyloid peptide and is therefore a widely used isoform in amyloid assays. Aβ40 is also known to have slower aggregation kinetics than Aβ42, which is helpful for studying the inhibition of the early aggregation pathway. […] Thus, a lower RFU can be interpreted as inhibiting the fibrillization of amyloids. The rest of the compounds show appreciable inhibition of Aβ aggregation as found in the Supplementary Materials (Figure S2), except for L9, which contains the morpholine EDG and a methoxy group on the EAG (Figure 3). The addition of the more polar oxygen heteroatom may instead favor hydrogen bonding interactions within the aqueous media, thereby solvating the compound and reducing early interactions with soluble aggregates. Lastly, although L2 and L3 show similar amyloid inhibition, the L3 compound lacking the o-methoxy group begins inhibition at an earlier time. […] This procedure was established in a previous publication.

[8] = molecular target: T5, Aβ aggregates (sAβ and Aβ fibrils) (Homo sapiens, UniProt P05067); test: Fluorescence turn-on assay with Aβ aggregates; type: binding; details: compound 5 μM in PBS pH 7.4
T5 construct: commercial Aβ42 peptide (AnaSpec or GL Biochem); purchased AnaSpec or GL Biochem
Method: A fluorescence turn-on assay was performed to interrogate the effect of structural differences on the fluorescence enhancement with Aβ aggregates. […] Increases in fluorescence intensity with different aggregates would be ideal for tools used in amyloid-based assays. […] Without the ortho-methoxy group on the EAG, there is greater fluorescence enhancement for Aβ fibrils over sAβ for L3 and L4. […] The larger fluorescence enhancement observed for L6 than L5 indicates the dimethylamine EDG/methoxy EAG pair has a greater TICT. The piperidine-EDG-containing L7 has only slightly higher turn-on with sAβ, which may be attributed to the ortho-methoxy group on the EAG. […] In this case, it appears that the methoxy on the EAG diminishes the overall fluorescence of the compound since L8 has greater baseline fluorescence and turn-on than L7. This is also the case for the morpholine-EDG-containing L9 and L10. The lack of a methoxy group on the L10 EAG, in conjunction with the oxygen heteroatom from the morpholine EDG, electronically favors turn-on with Aβ fibrils to a slight extent. […] Changing the EDG to a methyl piperazine, L11, increases baseline fluorescence and turn-on compared to L9. […] L11 and L12, both containing an N-methyl piperazine EDG, show similar turn-on with sAβ and fibrils, and the o-methoxy EAG of L11 increases overall baseline fluorescence compared to L12. […] The spectra for the remaining compounds can be found in the Supplementary Information (Figure S1). None of the three compounds with the highest fluorescence contained an o-methoxy group on the EAG.
as §1, with “above. […]” for “above.”

T5 sequence (P05067 672-713 limits assumed): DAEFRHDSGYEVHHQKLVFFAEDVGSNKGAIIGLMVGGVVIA
T2 sequence (P05067 672-713 limits assumed): as above
T3 sequence (P05067 672-713 limits assumed): as above
T1 sequence (P05067 672-713 limits assumed): as above
T4 sequence (P05067 672-711 limits assumed): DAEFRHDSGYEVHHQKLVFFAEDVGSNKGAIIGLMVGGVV

SMILES | Pearson's coefficient (R) of colocalization with AF594-HJ3.4 [1] | Compound+Fibrils λem (λmax of emission) [2] | Compound λem (λmax of emission) [3] | logD [4] | Compound+sAβ λem (λmax of emission) [5] | effect on Cu-stabilized Aβ42 / Aβ42-induced toxicity [6] | inhibition of Aβ40 aggregation (ThT RFU) [7] | fluorescence enhancement / turn-on with Aβ aggregates [8]
COc1cc(/C=C/c2ccc(N(C)C)cc2)cc(CN2CCN(C)CCN(C)CC2)c1O [Compound L1, (E)-2-((4,7-dimethyl-1,4,7-triazonan-1-yl)methyl)-4-(4-(dimethylamino)styryl)-6-methoxyphenol] | 0.67 | 455 nm | 455 nm | 1.33 ± 0.01 | 455 nm | rescue cells from Cu-Aβ42 cytotoxicity |  | 
CNc1ccc(/C=C/c2ccc(O)c(CN3CCN(C)CCN(C)CC3)c2)cc1 [Compound L3, (E)-2-((4,7-dimethyl-1,4,7-triazonan-1-yl)methyl)-4-(4-(methylamino)styryl)phenol] | 0.72 | 430 nm | 455 nm | 0.98 ± 0.01 | 430 nm |  |  | 
CN1CCN(C)CCN(Cc2cc(/C=C/c3ccc(N(C)C)cc3)ccc2O)CC1 [Compound L4, (E)-2-((4,7-dimethyl-1,4,7-triazonan-1-yl)methyl)-4-(4-(dimethylamino)styryl)phenol] | 0.60 | 435 nm | 455 nm | 1.44 ± 0.01 | 435 nm | toxicity was exacerbated | greatest inhibition; also recorded: best inhibition | greatest overall fluorescence enhancements
CCN(CC)c1ccc(/C=C/c2cc(CN3CCN(C)CCN(C)CC3)c(O)c(OC)c2)cc1 [Compound L5, (E)-4-(4-(diethylamino)styryl)-2-((4,7-dimethyl-1,4,7-triazonan-1-yl)methyl)-6-methoxyphenol] | 0.74 | 435 nm | 460 nm | 1.39 ± 0.01 | 435 nm | rescue cells from Cu-Aβ42 cytotoxicity |  | 
CCN(CC)c1ccc(/C=C/c2ccc(O)c(CN3CCN(C)CCN(C)CC3)c2)cc1 [Compound L6, (E)-4-(4-(diethylamino)styryl)-2-((4,7-dimethyl-1,4,7-triazonan-1-yl)methyl)phenol] | 0.70 | 430 nm | 455 nm | 1.37 ± 0.01 | 430 nm |  |  | 
COc1cc(/C=C/c2ccc(N3CCCCC3)cc2)cc(CN2CCN(C)CCN(C)CC2)c1O [Compound L7, (E)-2-((4,7-dimethyl-1,4,7-triazonan-1-yl)methyl)-6-methoxy-4-(4-(piperidin-1-yl)styryl)phenol] | 0.66 | 430 nm | 460 nm | 1.35 ± 0.02 | 430 nm |  |  | 
CN1CCN(C)CCN(Cc2cc(/C=C/c3ccc(N4CCOCC4)cc3)ccc2O)CC1 [Compound L10, (E)-2-((4,7-dimethyl-1,4,7-triazonan-1-yl)methyl)-4-(4-morpholinostyryl)phenol] | 0.74 | 435 nm | 455 nm | 1.03 ± 0.01 | 435 nm | rescue cells from Cu-Aβ42 cytotoxicity |  | highest fluorescence intensity; also recorded: greatest overall fluorescence enhancements
COc1cc(/C=C/c2ccc(N3CCN(C)CC3)cc2)cc(CN2CCN(C)CCN(C)CC2)c1O [Compound L11, (E)-2-((4,7-dimethyl-1,4,7-triazonan-1-yl)methyl)-6-methoxy-4-(4-(4-methylpiperazin-1-yl)styryl)phenol] | 0.77 | 450 nm | 455 nm | 0.85 ± 0.01 | 450 nm | inhibit both Cu-stabilized Aβ42- and Aβ42-induced toxicity; also recorded: rescue cells from Cu-Aβ42 cytotoxicity |  | 
